# Where two headings read alike, the source gives them in different places.
# Columns and labels:
# Plasmopara viticola = experiment: Greenhouse: activity against downy mildew of grapevine; type: in vivo; details: single active substance, grapevine leaves sprayed 1 day before inoculation
# Procedure: (§1) The active substances, separately or individually, were prepared as a stock solution, using 25 mg of active substance, which was made up to 10 ml with a mixture of acetone and/or DMSO and the emulsifier Uniperol® EL (wetter based on ethoxylated alkylphenols, with emulsifying and disputing activity) in the volumetric solvent/emulsifier ratio of 99 to 1. Then, the mixtures were made up to 100 ml with water. This stock solution was diluted with the above-described solvent/emulsifier/water mixture to give the active substance concentration stated below. As an alternative, the active substances were used as a commercially available ready mix and made up to the active substance concentration stated with water.
# (§2) The visually determined values for the percentage of affected leaf area were converted into efficacies as % of the untreated control:
# (§3) The efficacy (E) is calculated as follows, using Abbot's formula: E=(1−α/β)·100 • α corresponds to the fungal disease level of the treated plants in % and • β corresponds to the fungal disease level of the untreated (control) plants in %
# (§4) At an efficacy of 0 the disease level of the treated plants corresponds to that of the untreated control plants; at an efficacy of 100, the treated plants are not diseased.
# (§5) The expected efficacies for active substance combinations were determined using the Colby formula (Colby, S. R. (Calculating synergistic and antagonistic responses of herbicide Combinations”, Weeds, 15, p. 20-22, 1967) and compared with the observed efficacies.
# (§6) Colby Formula: E=x+y−x·y/100 • E expected efficacy, expressed in % of the untreated control, when employing the mixture of the active substances A and B at the concentrations a and b • x efficacy, expressed in % of the untreated control, when employing active substance A at concentration a • y efficacy, expressed in % of the untreated control, when employing active substance B at concentration b
# Leaves of pot-grown grapevines were sprayed to runoff point with aqueous suspension at the active substance concentration stated below. On the next day, the abaxial sides of the leaves were inoculated with an aqueous sporangia suspension of Plasmopara viticola. Then, the grapevines were placed first for 24 hours into a water-vapor-saturated chamber at 24° C. and then for 5 days in the greenhouse at temperatures of between 20 and 30° C. After this time, the plants were returned into a humid chamber for 16 hours in order to accelerate the eruption of the sporangiophores. Then, the extent of the disease development on the abaxial sides of the leaves was determined visually.
# Phytophthora infestans [1] = type: cell-based; details: single active substance, microtiter plate, day 7, 405 nm
# Septoria tritici = experiment: Microtiter test against the Septoria leaf spot pathogen (Septtr); type: cell-based; details: single active substance, microtiter plate, day 7, 405 nm
# Phytophthora infestans [2] = type: in vivo; details: single active substance, tomato, protective spray, rated after 6 days
# Botrytis cinerea = experiment: Greenhouse: 1-day protective activity against gray mold on capsicum leaves; type: in vivo; details: single active substance, protective 1 day, rated after 5 days
# Procedure: as §1, §2, §3, §4, §5, §6
# Capsicum seedlings were allowed to develop 2-3 leaves properly and were then sprayed to runoff point with an aqueous suspension of the active substance concentration stated below. On the next day, the treated plants were inoculated with a spore suspension of Botrytis cinerea in a 2% strength Biomalz solution. Thereafter, the test plants were placed into a controlled-environment cabinet at 22 to 24° C. in the dark and with high atmospheric humidity. After 5 days, it was possible to visually determine the extent of the fungal disease level on the leaves in %.
# Puccinia recondita [3] = experiment: Greenhouse: protective activity against leaf rust of wheat; type: in vivo; details: single active substance
# Procedure: as §1, §2
# (§7) The efficacy (E) is calculated as follows, using Abbot's formula: E=(1−α/β)·100 • α corresponds to the fungal disease level of the treated plants in % and • β corresponds to the fungal disease level of the untreated (control) plants in % […]
# (§8) The expected efficacies for active substance combinations were determined using the Colby formula (Colby, S. R. (Calculating synergistic and antagonistic responses of herbicide Combinations”, Weeds, 15, p. 20-22, 1967) and compared with the observed efficacies. […]
# Puccinia recondita [4] = experiment: Greenhouse: curative activity against leaf rust of wheat; type: in vivo; details: single active substance
# Procedure: as §1, §2, §7, §8
# Phakopsora pachyrhizi = experiment: Greenhouse: curative activity against soybean rust; type: in vivo; details: single active substance
# Procedure: as §1, §2, §7, §8
# Pyrenophora teres = experiment: Greenhouse: 1-day protective activity against barley net blotch disease; type: in vivo, Pyrenophora [syn. Drechslera] teres; details: single active substance, protective 1 day, rated after 6 days
# Procedure: as §1, §2, §7, §8
# [5] = 0.063 ppm, efficacy as % of untreated control (Abbot)
SMILES,Observed effect (%) (Phytophthora infestans [1]; 1 ppm),Observed effect (%) (Phytophthora infestans [1]; 4 ppm),Observed effect (%) (Phytophthora infestans [1]; 16 ppm),Observed effect (%) (Plasmopara viticola; 0.25 ppm),further results
"CCC/C(=N\OCC)C1=C(O)CC(C2CCCSC2)CC1=O (stereo not drawn) [Cycloxydim (I.Ba), cycloxydim, reference compound]",9,5,13,,Observed effect (%) (Plasmopara viticola; 0.063 ppm): 0%; Observed effect (%) (Septoria tritici; 63 ppm): 39%
COC[C@H](C)N(C(=O)CCl)c1c(C)csc1C [Dimethenamid-P (I.Ea)],,,,,Observed effect (%) (Plasmopara viticola; 0.016 ppm): 0%
"COCC(C)N(C(=O)CCl)c1c(C)csc1C (stereo not drawn) [Dimetheneamid-P (I.Ea), dimethenamid-P, reference compound]",,,,,Observed effect (%) (Phytophthora infestans [2]; [5]): 22%; Observed effect (%) (Botrytis cinerea; 0.25 ppm): 0%
CP(=O)(O)CCC(N)C(=O)O (stereo not drawn) [Glufosinate (I.Ab)],3,12,20,0,Observed effect (%) (Plasmopara viticola; 0.063 ppm): 0%
"O=C(O)CNCP(=O)(O)O [Glyphosate (I.Aa), glyphosate, reference compound]",4,1,13,,"Observed effect (%) (Plasmopara viticola; 0.016 ppm): 0%; Observed effect (%) (Puccinia recondita [3]; 0.063 ppm): 0%; Observed effect (%) (Puccinia recondita [4]; 0.063 ppm, curative (sprayed 1 day after inoculation)): 0%"
"Cc1nc2ncnn2c(N)c1-c1ccc(Cl)c(Cl)c1 [II-1, 6-(3,4-dichlorophenyl)-5-methyl-[1,2,4]triazolo[1,5-a]pyrimidin-7-ylamine]",,,,,Observed effect (%) (Septoria tritici; 16 ppm): 12%
"CCCCCCCCc1nc2ncnn2c(N)c1CC [II-6, 6-ethyl-5-octyl-[1,2,4]triazolo[1,5-a]pyrimidin-7-ylamine]",,,25,,"Observed effect (%) (Plasmopara viticola; 16 ppm): 44%; Observed effect (%) (Puccinia recondita [3]; 4 ppm): 0%; Observed effect (%) (Puccinia recondita [4]; 4 ppm, curative): 0%; Observed effect (%) (Botrytis cinerea; 16 ppm): 0%"
"CCCCCCCCc1c(CC)nc2ncnn2c1N [II-7, 5-ethyl-6-octyl-[1,2,4]triazolo[1,5-a]pyrimidin-7-ylamine]",7,,,,Observed effect (%) (Plasmopara viticola; 1 ppm): 0%; Observed effect (%) (Plasmopara viticola; 4 ppm): 22%
"CCc1nc2ncnn2c(N)c1CCC(C)CC(C)(C)C (stereo not drawn) [II-8, 5-ethyl-6-(3,5,5-trimethylhexyl)-[1,2,4]triazolo[1,5-a]pyrimidin-7-ylamine]",,1,,,Observed effect (%) (Plasmopara viticola; 1 ppm): 33%; Observed effect (%) (Phytophthora infestans [2]; 4 ppm): 22%
"CCCCCCCCc1c(COC)nc2ncnn2c1N [II-10, 5-methoxymethyl-6-octyl-[1,2,4]triazolo[1,5-a]pyrimidin-7-ylamine]",,,,,"Observed effect (%) (Phakopsora pachyrhizi; 16 ppm, curative): 0%; Observed effect (%) (Plasmopara viticola; 4 ppm): 0%; Observed effect (%) (Plasmopara viticola; 16 ppm): 44%; Observed effect (%) (Phytophthora infestans [2]; 16 ppm): 0%; Observed effect (%) (Pyrenophora teres; 16 ppm): 0%; Observed effect (%) (Phytophthora infestans [1]; 0.25 ppm): 10%; Observed effect (%) (Botrytis cinerea; 16 ppm): 0%"
Cc1cnc(C2=NC(=O)C(C)(C(C)C)N2)c(C(=O)O)c1 (stereo not drawn) [Imazapic (I.Cd)],4,4,12,0,Observed effect (%) (Plasmopara viticola; 0.063 ppm): 0%
CC(C)C1(C)N=C(c2ncccc2C(=O)O)NC1=O (stereo not drawn) [Imazapyr (I.Ca)],1,9,8,,Observed effect (%) (Plasmopara viticola; 0.063 ppm): 0%
CC(C)C1(C)N=C(c2nc3ccccc3cc2C(=O)O)NC1=O (stereo not drawn) [Imazaquin (I.Cc)],8,11,23,0,
CCc1cnc(C2=NC(C)(C(C)C)C(=O)N2)c(C(=O)O)c1 (stereo not drawn) [Imazethapyr (I.Cb)],3,8,9,0,
"C[n+]1ccc(-c2cc[n+](C)cc2)cc1 [Paraquat (I.Fa), paraquat, reference compound]",4,5,7,,"Observed effect (%) (Phakopsora pachyrhizi; 0.25 ppm, curative (sprayed 1 day after inoculation)): 0%; Observed effect (%) (Phytophthora infestans [2]; [5]): 0%; Observed effect (%) (Phytophthora infestans [2]; 0.25 ppm): 0%; Observed effect (%) (Botrytis cinerea; 0.25 ppm): 0%"
CCC(CC)Nc1c([N+](=O)[O-])cc(C)c(C)c1[N+](=O)[O-] [Pendimethalin (I.Da)],7,16,29,0,Observed effect (%) (Phytophthora infestans [1]; 63 ppm): 38%
"CCC/C(=N\OCC)C1=C(O)CC(CC(C)SCC)CC1=O (stereo not drawn) [Sethoxydim (I.Bc), sethoxydim, reference compound]",2,5,14,0,Observed effect (%) (Pyrenophora teres; 0.25 ppm): 0%

# — US8461077B2 (priority 2007, dated 2013)
